“Also recorded” adds a separate entry of the source. Like-named read-outs stand apart in the source and are kept apart here.
Key:
5-HT2B (h) = 5-HT2B (h) (Homo sapiens, UniProt P41595); assay: 5-HT2B (h) (agonist radioligand) binding assay; conditions: 1.0E−05M
MAO-A = MAO-A (Rattus norvegicus, UniProt P21396); assay: MAO-A (antagonist radioligand) binding assay; conditions: 1.0E−05M
PR (h) = target: T1, PR (h) (Homo sapiens, UniProt P06401); assay: PR (h) (agonist radioligand) binding assay; conditions: 1.0E−05M
T1 construct: T47D cells (cytosol)
T1 sequence (P06401 679-933): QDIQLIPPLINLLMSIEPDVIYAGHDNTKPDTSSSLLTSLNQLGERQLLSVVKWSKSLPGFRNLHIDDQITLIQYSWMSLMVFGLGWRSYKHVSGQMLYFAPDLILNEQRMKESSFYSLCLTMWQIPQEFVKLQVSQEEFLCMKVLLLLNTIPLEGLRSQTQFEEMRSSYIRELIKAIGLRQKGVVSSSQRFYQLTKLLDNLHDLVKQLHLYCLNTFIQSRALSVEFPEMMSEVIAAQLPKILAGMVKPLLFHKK

guanylyl cyclase (h) = guanylyl cyclase (h) (Homo sapiens, UniProt Q02108+Q02153); format: biochemical; conditions: guanylyl cyclase (h) (activator effect); 1.0E−05M
[1] = target: T2, enzyme and uptake assay panel targets (Table 36) (Bos taurus, UniProt P80457); assay: biochemical; format: biochemical; conditions: xanthine oxldase/superoxide 02 ^−scavenging, 1.0E−05M
T2 construct: other: xanthine oxidase/superoxide 02^−scavenging; nH; other: xanthine oxldase/superoxide 02 ^−scavenging; 1.0E−05M; ot; purified xanthine oxidase from bovine milk
T2 sequence (P80457 whole entry): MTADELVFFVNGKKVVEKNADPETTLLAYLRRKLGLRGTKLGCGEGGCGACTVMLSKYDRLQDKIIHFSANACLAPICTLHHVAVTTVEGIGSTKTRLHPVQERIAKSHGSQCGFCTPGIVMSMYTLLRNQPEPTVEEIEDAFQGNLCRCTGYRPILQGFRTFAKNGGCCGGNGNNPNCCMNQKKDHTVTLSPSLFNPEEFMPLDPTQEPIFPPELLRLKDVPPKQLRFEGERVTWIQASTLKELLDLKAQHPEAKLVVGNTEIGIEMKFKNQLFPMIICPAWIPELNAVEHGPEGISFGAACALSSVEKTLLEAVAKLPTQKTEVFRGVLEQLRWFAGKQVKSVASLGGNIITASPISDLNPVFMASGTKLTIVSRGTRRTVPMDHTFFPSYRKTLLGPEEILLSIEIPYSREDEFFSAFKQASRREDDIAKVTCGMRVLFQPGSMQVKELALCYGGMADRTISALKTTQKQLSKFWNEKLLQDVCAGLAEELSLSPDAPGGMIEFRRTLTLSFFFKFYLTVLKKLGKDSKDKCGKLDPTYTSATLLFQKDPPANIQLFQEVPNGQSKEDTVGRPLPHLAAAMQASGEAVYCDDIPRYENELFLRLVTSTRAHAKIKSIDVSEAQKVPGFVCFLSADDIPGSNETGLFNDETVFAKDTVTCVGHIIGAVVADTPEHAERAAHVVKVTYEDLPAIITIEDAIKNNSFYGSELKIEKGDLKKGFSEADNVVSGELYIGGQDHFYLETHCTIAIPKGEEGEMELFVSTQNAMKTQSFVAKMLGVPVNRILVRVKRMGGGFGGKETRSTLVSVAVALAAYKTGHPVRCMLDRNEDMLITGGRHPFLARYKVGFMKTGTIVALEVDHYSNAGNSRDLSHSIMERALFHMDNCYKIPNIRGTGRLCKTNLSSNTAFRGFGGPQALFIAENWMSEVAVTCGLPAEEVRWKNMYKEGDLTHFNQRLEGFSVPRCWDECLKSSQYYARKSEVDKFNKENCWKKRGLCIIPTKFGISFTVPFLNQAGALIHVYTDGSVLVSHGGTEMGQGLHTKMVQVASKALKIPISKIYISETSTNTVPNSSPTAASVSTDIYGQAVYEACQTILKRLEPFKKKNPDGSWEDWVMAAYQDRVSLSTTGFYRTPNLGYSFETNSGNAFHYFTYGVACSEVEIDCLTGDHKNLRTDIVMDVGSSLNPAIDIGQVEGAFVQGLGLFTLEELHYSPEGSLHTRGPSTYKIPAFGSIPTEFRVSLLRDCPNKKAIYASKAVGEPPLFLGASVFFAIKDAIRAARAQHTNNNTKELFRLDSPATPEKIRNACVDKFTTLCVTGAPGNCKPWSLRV

[2] = target: enzyme and uptake assay panel targets (Table 36) (Homo sapiens, UniProt O76074); assay: biochemical; format: biochemical; conditions: PDE5 (h) (non-selective); 1.0E−05M
[3] = target: enzyme and uptake assay panel targets (Table 36) (Homo sapiens, UniProt P00519); assay: biochemical; format: biochemical; conditions: Abl kinase (h); 1.0E−05M
[4] = target: enzyme and uptake assay panel targets (Table 36) (Homo sapiens, UniProt P03956); assay: biochemical; format: biochemical; conditions: MMP-1 (h); 1.0E−05M; flag INTER: Test compound interferes with the assay detection method
Chain of enzyme and uptake assay panel targets (Table 36) (Homo sapiens, UniProt P03956) (P03956 100-469): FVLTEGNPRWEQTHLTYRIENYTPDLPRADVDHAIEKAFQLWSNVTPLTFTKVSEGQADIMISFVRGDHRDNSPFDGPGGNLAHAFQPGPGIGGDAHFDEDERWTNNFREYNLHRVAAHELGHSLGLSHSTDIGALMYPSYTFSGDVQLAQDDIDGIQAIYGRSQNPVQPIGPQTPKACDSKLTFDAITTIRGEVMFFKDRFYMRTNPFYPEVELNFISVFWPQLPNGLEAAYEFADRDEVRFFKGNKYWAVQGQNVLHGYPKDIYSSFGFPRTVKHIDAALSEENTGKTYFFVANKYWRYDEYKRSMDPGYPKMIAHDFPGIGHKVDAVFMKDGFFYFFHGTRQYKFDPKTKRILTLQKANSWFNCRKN

[5] = target: enzyme and uptake assay panel targets (Table 36) (Homo sapiens, UniProt P08253); assay: biochemical; format: biochemical; conditions: MMP-2 (h); 1.0E−05M
[6] = target: enzyme and uptake assay panel targets (Table 36) (Homo sapiens, UniProt P09917); assay: biochemical; format: biochemical; conditions: 5-lipoxygenase (h); 1.0E−05M
Chain of enzyme and uptake assay panel targets (Table 36) (Homo sapiens, UniProt P09917) (P09917 whole entry): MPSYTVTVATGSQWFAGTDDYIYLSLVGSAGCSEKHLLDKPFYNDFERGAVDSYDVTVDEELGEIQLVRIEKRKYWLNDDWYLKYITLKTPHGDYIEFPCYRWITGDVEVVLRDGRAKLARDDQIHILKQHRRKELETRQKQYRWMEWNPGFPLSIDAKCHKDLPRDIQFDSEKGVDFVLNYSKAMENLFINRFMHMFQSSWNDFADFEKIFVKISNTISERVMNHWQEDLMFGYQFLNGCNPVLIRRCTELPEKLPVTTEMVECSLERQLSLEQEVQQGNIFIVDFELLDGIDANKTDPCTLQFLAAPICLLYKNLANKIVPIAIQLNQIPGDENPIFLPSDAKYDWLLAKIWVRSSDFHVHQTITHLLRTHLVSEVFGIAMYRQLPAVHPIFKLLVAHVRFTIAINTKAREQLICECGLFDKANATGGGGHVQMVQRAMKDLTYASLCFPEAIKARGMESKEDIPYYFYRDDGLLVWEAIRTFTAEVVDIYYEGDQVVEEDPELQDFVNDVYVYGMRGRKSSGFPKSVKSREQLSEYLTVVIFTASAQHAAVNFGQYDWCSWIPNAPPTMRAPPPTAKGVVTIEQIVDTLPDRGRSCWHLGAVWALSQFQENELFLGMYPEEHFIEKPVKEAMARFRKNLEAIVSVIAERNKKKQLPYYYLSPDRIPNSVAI

[7] = target: enzyme and uptake assay panel targets (Table 36) (Homo sapiens, UniProt P18054); assay: biochemical; format: biochemical; conditions: 12-lipoxygenase (h); 1.0E−05M
[8] = target: enzyme and uptake assay panel targets (Table 36) (Homo sapiens, UniProt P23219); assay: biochemical; format: biochemical; conditions: COX1(h); 1.0E−05M
Chain of enzyme and uptake assay panel targets (Table 36) (Homo sapiens, UniProt P23219) (P23219 24-599): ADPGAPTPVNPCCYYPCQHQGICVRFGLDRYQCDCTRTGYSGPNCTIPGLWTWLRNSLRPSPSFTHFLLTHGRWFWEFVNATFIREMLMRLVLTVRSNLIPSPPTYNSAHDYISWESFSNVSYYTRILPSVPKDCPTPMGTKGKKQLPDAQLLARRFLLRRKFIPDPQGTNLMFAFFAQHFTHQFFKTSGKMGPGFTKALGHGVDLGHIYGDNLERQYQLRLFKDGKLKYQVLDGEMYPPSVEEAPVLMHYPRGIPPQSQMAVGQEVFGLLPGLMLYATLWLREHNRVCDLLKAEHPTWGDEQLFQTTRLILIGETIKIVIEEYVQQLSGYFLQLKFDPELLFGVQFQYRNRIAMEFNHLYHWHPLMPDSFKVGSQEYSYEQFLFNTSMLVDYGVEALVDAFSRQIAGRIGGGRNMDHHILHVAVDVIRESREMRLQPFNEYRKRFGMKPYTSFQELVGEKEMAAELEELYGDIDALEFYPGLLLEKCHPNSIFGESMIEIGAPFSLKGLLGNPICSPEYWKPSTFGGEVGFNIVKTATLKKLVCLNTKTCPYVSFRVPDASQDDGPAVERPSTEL

[9] = target: enzyme and uptake assay panel targets (Table 36) (Homo sapiens, UniProt P28482); assay: biochemical; format: biochemical; conditions: ERK2 (h) (P42^mapk); 1.0E−05M
[10] = target: enzyme and uptake assay panel targets (Table 36) (Homo sapiens, UniProt P35354); assay: biochemical; format: biochemical; conditions: COX2(h); 1.0E−05M
Chain of enzyme and uptake assay panel targets (Table 36) (Homo sapiens, UniProt P35354) (P35354 18-604): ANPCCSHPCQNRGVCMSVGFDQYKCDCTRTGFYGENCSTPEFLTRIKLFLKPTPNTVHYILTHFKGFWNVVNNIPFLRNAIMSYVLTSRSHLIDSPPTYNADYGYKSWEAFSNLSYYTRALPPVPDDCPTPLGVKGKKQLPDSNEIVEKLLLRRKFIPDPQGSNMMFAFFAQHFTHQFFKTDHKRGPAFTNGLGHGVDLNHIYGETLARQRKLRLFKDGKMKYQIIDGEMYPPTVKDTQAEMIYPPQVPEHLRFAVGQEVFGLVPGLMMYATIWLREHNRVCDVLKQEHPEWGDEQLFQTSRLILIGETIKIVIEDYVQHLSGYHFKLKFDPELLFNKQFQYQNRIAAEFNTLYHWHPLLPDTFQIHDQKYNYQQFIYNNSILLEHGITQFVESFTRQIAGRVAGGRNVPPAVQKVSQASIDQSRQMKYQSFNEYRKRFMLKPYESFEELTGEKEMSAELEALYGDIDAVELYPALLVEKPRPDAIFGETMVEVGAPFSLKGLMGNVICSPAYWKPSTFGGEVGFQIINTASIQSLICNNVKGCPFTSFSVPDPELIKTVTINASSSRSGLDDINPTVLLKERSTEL

[11] = target: enzyme and uptake assay panel targets (Table 36) (Homo sapiens, UniProt P43403); assay: biochemical; format: biochemical; conditions: ZAP70 kinase (h); 1.0E−05M
[12] = target: enzyme and uptake assay panel targets (Table 36) (Homo sapiens, UniProt Q14790); assay: biochemical; format: biochemical; conditions: caspase-8 (h); 1.0E−05M
Chain of enzyme and uptake assay panel targets (Table 36) (Homo sapiens, UniProt Q14790) (Q14790 217-479): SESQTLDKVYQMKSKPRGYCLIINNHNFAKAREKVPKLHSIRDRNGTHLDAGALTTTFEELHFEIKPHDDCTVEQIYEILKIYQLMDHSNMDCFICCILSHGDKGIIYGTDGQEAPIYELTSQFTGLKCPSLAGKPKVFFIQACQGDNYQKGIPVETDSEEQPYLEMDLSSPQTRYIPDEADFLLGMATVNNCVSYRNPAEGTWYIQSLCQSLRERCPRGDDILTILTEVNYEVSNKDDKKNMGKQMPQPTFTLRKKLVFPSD

[13] = target: enzyme and uptake assay panel targets (Table 36) (Homo sapiens, UniProt Q16539); assay: biochemical; format: biochemical; conditions: p38α kinase (h); 1.0E−05M
[14] = target: enzyme and uptake assay panel targets (Table 36) (Homo sapiens, UniProt Q9UQM7); assay: biochemical; format: biochemical; conditions: CaMK2α (h); 1.0E−05M
[15] = system: T3, enzyme and uptake assay panel targets (Table 36); assay: biochemical; format: biochemical; conditions: ATPase (Na+/K+); 1.0E−05M
T3 construct: other: ATPase (Na+/K+); 1.0E−05M; nH; porcine cerebral cortex

human hepatocytes = format: in vitro ADME
[16] = read-out: % Inhibition of Control Specific Binding 1st
[17] = read-out: % Inhibition of Control Specific Binding 2nd
[18] = read-out: % Inhibition of Control Specific Binding Mean

Chain of MAO-A (P21396 whole entry): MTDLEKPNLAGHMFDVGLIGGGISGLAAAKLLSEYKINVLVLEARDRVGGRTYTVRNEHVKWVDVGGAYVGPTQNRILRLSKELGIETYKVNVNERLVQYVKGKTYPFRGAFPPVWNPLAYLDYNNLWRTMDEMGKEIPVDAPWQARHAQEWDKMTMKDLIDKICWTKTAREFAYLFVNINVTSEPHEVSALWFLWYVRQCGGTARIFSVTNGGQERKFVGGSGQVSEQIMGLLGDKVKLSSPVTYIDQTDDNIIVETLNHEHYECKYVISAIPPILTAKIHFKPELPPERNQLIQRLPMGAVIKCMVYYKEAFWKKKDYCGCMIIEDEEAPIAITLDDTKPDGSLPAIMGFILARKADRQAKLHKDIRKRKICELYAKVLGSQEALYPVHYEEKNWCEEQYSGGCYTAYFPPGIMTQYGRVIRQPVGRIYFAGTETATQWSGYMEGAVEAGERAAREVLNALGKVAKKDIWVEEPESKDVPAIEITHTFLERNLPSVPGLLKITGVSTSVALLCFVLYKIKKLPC
Chain of 5-HT2B (h) (P41595 whole entry): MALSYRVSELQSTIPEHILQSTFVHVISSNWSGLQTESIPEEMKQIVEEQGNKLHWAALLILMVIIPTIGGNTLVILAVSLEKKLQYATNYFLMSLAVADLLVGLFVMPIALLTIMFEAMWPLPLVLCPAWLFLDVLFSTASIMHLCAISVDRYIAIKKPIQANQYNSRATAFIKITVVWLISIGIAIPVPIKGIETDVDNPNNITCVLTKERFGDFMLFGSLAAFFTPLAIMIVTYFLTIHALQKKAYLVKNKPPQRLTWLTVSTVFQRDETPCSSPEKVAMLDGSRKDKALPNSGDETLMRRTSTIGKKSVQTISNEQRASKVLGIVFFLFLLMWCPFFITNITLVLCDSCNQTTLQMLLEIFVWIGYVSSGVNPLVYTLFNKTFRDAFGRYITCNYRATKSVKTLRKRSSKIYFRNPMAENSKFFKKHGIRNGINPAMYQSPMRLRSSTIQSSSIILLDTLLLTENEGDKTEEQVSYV

[2H]C([2H])([2H])C(O)(c1nc2ccc(Cl)cc2cc1N)C([2H])([2H])[2H] [Compound I-1]
inhibition at 10 µM (5-HT2B (h); [16]): 60.8% | inhibition at 10 µM (5-HT2B (h); [17]): 64.2% | inhibition at 10 µM (5-HT2B (h); [18]): 62.5% | inhibition at 10 µM (MAO-A; [16]): 66.4% | inhibition at 10 µM (MAO-A; [17]): 70.7% | inhibition at 10 µM (MAO-A; [18]): 68.5% | inhibition at 10 µM (PR (h); [16]): 58.7% | inhibition at 10 µM (PR (h); [17]): 63.1% | inhibition at 10 µM (PR (h); [18]): 60.9% | % of Control Values 1st (guanylyl cyclase (h)): 0.2% | % of Control Values 2nd (guanylyl cyclase (h)): 0.3% | % of Control Values Mean (guanylyl cyclase (h)): 0.2% | inhibition at 10 µM ([1]; read-out: % inhibition of Control Values 1st): -3.1% | inhibition at 10 µM ([1]; read-out: % inhibition of Control Values 2nd): 15.6% | inhibition at 10 µM ([1]; read-out: % inhibition of Control Values Mean): 6.3% | % inhibition of Control Values 1st [2]: −8.6% | % inhibition of Control Values 2nd [2]: −2.9% | % inhibition of Control Values Mean [2]: −5.7% | % inhibition of Control Values 1st [3]: −4.8% | % inhibition of Control Values 2nd [3]: −11.6% | % inhibition of Control Values Mean [3]: −8.2% | % inhibition of Control Values 1st [4]: 45.3% | % inhibition of Control Values 2nd [4]: 10.7% | % inhibition of Control Values Mean [4]: 28.0% | % inhibition of Control Values 1st [5]: 4.9% | % inhibition of Control Values 2nd [5]: −2.4% | % inhibition of Control Values Mean [5]: 1.3% | % inhibition of Control Values 1st [6]: 23.5% | % inhibition of Control Values 2nd [6]: 24.8% | % inhibition of Control Values Mean [6]: 24.2% | % inhibition of Control Values 1st [7]: −9.4% | % inhibition of Control Values 2nd [7]: −4.1% | % inhibition of Control Values Mean [7]: −6.7% | % inhibition of Control Values 1st [8]: 20.1% | % inhibition of Control Values 2nd [8]: −2.6% | % inhibition of Control Values Mean [8]: 8.8% | % inhibition of Control Values 1st [9]: −6.3% | % inhibition of Control Values 2nd [9]: −1.3% | % inhibition of Control Values Mean [9]: −3.8% | % inhibition of Control Values 1st [10]: 12.8% | % inhibition of Control Values 2nd [10]: 3.0% | % inhibition of Control Values Mean [10]: 7.9% | % inhibition of Control Values 1st [11]: 0.4% | % inhibition of Control Values 2nd [11]: 1.5% | % inhibition of Control Values Mean [11]: 1.0% | % inhibition of Control Values 1st [12]: 14.7% | % inhibition of Control Values 2nd [12]: 16.4% | % inhibition of Control Values Mean [12]: 15.6% | % inhibition of Control Values 1st [13]: −3.2% | % inhibition of Control Values 2nd [13]: −3.1% | % inhibition of Control Values Mean [13]: −3.2% | % inhibition of Control Values 1st [14]: 0.2% | % inhibition of Control Values 2nd [14]: −6.5% | % inhibition of Control Values Mean [14]: −3.1% | % inhibition of Control Values 1st [15]: 5.2% | % inhibition of Control Values 2nd [15]: −0.4% | % inhibition of Control Values Mean [15]: 2.4%

CC(C)(O)c1nc2ccc(Cl)cc2cc1N [NS2, 2-(3-amino-6-chloroquinolin-2-yl)propan-2-ol]
metabolite profile (human hepatocytes; NS2, 120 min, human hepatocytes): metabolized to M1, M7, M8, and a low amount of M9, with some unchanged NS2 remaining; also recorded: a mono-oxidation metabolite (M), two oxidation+glucuronidation metabolites (M7 and M9), and a glucuronidation metabolite (M) | Peak Areas Human (human hepatocytes; human, 120 min, 3 μM): 4.41E+08 | metabolite profile (dog hepatocytes; NS2, 120 min, dog hepatocytes): metabolized to M1, M2, M5, and M6, with some unchanged NS2 remaining; also recorded: two different mono-oxidation products (M1 and M2) and two different glutathione (GSH) conjugates (M5 and M6) | Peak Areas Dog (dog hepatocytes; dog, 120 min, 3 μM): 4.79E+07 | metabolite profile (monkey hepatocytes; NS2, 120 min, monkey hepatocytes): metabolized to M1, M3, M4, M7, M8, and a low amount of M9, with some unchanged NS2 remaining; also recorded: a mono-oxidation metabolite (M), four oxidation+glucuronidation metabolites (M3, M4, M7, and M9), and a glucuronidation metabolite (M) | Peak Areas Cyno Monkey (monkey hepatocytes; cynomolgus monkey, 120 min, 3 μM): 1.74E+08

Reference: US12240816B2, “Deuterated compounds and uses thereof” (Aldeyra Therapeutics, Inc., priority 2015, dated 2025)
